Assay results as given in article PMC9090415, “Discovery of small molecule inhibitors of Plasmodium falciparum apicoplast DNA polymerase” (Journal of Enzyme Inhibition and Medicinal Chemistry, 2022).

Biological target: P. falciparum apicoplast DNA polymerase (Pf-apPOL) (Plasmodium falciparum, UniProt Q8ILY1)
Assay: Fluorescence-based high-throughput DNA polymerase assay (molecular beacon), primary screen and dose-response;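 as to % inhibition ApPOL 90': test concentration in µM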;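 as to % inhibition apPOL 180': test concentration in µM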
Type: biochemical
Procedure, shortened: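 Single-point screening used 10 µM compound with 20 nM polymerase, 20 nM hairpin substrate and 6 µM dNTPs for 90 min at 25 °C. Confirmatory titrations (2.5–80 µM) followed fluorescence at three times, and IC50 was derived from a fit including a cooperativity term n.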

[1] = DRC-2, 5', concentration 10 (unit not given)
[2] = DRC-2, 5', concentration 40 (unit not given)
[3] = DRC-2, 40', concentration 40 (unit not given)
[4] = DRC-2, 90', concentration 10 (unit not given)
[5] = DRC-2, 180', concentration 20 (unit not given)

Chain of P. falciparum apicoplast DNA polymerase (Pf-apPOL) (Q8ILY1 entry or part of it): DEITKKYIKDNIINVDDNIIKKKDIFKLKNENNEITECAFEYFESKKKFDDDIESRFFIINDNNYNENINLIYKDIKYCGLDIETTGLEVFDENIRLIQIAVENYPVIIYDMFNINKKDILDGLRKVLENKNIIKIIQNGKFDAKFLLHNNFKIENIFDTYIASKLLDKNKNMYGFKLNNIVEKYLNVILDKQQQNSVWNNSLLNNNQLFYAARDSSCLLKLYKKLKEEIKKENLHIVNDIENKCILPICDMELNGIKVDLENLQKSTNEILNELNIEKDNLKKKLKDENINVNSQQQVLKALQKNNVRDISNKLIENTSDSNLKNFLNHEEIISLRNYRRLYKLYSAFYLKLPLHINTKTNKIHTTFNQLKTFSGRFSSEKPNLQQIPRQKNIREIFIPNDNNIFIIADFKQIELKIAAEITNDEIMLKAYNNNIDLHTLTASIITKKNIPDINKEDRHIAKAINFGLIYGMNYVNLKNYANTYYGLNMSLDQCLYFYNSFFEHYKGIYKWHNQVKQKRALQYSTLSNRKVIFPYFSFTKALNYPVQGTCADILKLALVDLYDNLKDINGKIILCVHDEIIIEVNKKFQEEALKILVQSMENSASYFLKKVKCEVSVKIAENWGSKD

SMILES: Oc1cccnc1/N=C/c1cc(I)cc(I)c1O [KU0073720]
- % inhibition Apo pol 10' (DRC-1; concentration 2.5; 10'): 24.1498%
- % inhibition Apol 90' (DRC-1; concentration 2.5; 90'): 12.6325%
- % inhibition apPOL 180' (DRC-1; concentration 2.5; 180'): 7.269%
- % inhibition Apo pol 10' (DRC-1; concentration 5; 10'): 35.1256%
- % inhibition Apol 90' (DRC-1; concentration 5; 90'): 18.9546%
- % inhibition apPOL 180' (DRC-1; concentration 5; 180'): 7.696%
- % inhibition Apo pol 10' (DRC-1; concentration 10; 10'): 54.1581%
- % inhibition Apol 90' (DRC-1; concentration 10; 90'): 35.5541%
- % inhibition apPOL 180' (DRC-1; concentration 10; 180'): 22.0989%
- % inhibition Apo pol 10' (DRC-1; concentration 20; 10'): 82.6757%
- % inhibition Apol 90' (DRC-1; concentration 20; 90'): 72.4882%
- % inhibition apPOL 180' (DRC-1; concentration 20; 180'): 62.032%
- % inhibition Apo pol 10' (DRC-1; concentration 40; 10'): 88.0061%
- % inhibition Apol 90' (DRC-1; concentration 40; 90'): 85.8588%
- % inhibition apPOL 180' (DRC-1; concentration 40; 180'): 82.0572%
- % inhibition Apo pol 10' (DRC-1; concentration 80 (unit not given); 10'): 86.1265%
- % inhibition Apol 90' (DRC-1; concentration 80; 90'): 87.3428%
- % inhibition apPOL 180' (DRC-1; concentration 80; 180'): 87.5745%
- % inhibition Apo pol 5' (DRC-2; 5'; concentration 40): 63%
- % inhibition Apol 40' (DRC-2; 40'; concentration 20): 63%
- % inhibition Apo pol 5' (DRC-2; concentration 2.5; 5'): 26%
- % inhibition Apol 40' (DRC-2; concentration 2.5; 40'): 24%
- % inhibition ApPOL 90' (DRC-2; concentration 2.5; 90'): 22%
- % inhibition apPOL 180' (DRC-2; concentration 2.5; 180'): 15%
- % inhibition Apo pol 5' (DRC-2; concentration 5; 5'): 36%
- % inhibition Apol 40' (DRC-2; concentration 5; 40'): 33%
- % inhibition ApPOL 90' (DRC-2; concentration 5; 90'): 28%
- % inhibition apPOL 180' (DRC-2; concentration 5; 180'): 17%
- % inhibition Apo pol 5' (DRC-2; concentration 10; 5'): 51%
- % inhibition Apol 40' (DRC-2; concentration 10; 40'): 52%
- % inhibition ApPOL 90' (DRC-2; concentration 10; 90'): 49%
- % inhibition apPOL 180' (DRC-2; concentration 10; 180'): 37%
- % inhibition Apo pol 5' (DRC-2; concentration 20; 5'): 57%
- % inhibition Apol 40' (DRC-2; concentration 20; 40'): 63%
- % inhibition ApPOL 90' (DRC-2; concentration 20; 90'): 62%
- % inhibition apPOL 180' (DRC-2; concentration 20; 180'): 54%
- % inhibition Apo pol 5' (DRC-2; concentration 40; 5'): 63%
- % inhibition Apol 40' (DRC-2; concentration 40; 40'): 73%
- % inhibition ApPOL 90' (DRC-2; concentration 40; 90'): 75%
- % inhibition apPOL 180' (DRC-2; concentration 40; 180'): 74%
- % inhibition Apo pol 5' (DRC-2; concentration 80; 5'): 58%
- % inhibition Apol 40' (DRC-2; concentration 80; 40'): 72%
- % inhibition ApPOL 90' (DRC-2; concentration 80; 90'): 76%
- % inhibition apPOL 180' (DRC-2; concentration 80; 180'): 77%
- DNA Pol (primary screen value of the 186 hits; unit not given; 90 min, 10 µM): 46
- DNA Pol (primary screen value; head prints only 'DNA Pol'; 90 min, 10 µM): 46

SMILES: Nc1c(S(=O)(=O)O)cc(Nc2ccccc2)c2c1C(=O)c1ccccc1C2=O [KU0045407]
- DNA Pol ('DNA Pol' of the 186 hits list (primary screen result); unit not given; 90 min, 10 µM): 49
- % inhibition Apo pol 10' (DRC-1; 10'; concentration 2.5): 39.3278%
- % inhibition Apo pol 10' (DRC-1; 10'; concentration 5): 47.4944%
- % inhibition Apo pol 10' (DRC-1; 10'; concentration 10): 57.4142%
- % inhibition Apo pol 10' (DRC-1; 10'; concentration 20): 88.2417%
- % inhibition Apo pol 10' (DRC-1; 10'; concentration 40): 98.9011%
- % inhibition Apo pol 10' (DRC-1; 10'; concentration 80): 101.451%
- % inhibition Apol 90' (DRC-1; 90'; concentration 2.5): 14.8722%
- % inhibition Apol 90' (DRC-1; 90'; concentration 5): 18.228%
- % inhibition Apol 90' (DRC-1; 90'; concentration 10): 36.638%
- % inhibition Apol 90' (DRC-1; 90'; concentration 20): 73.4923%
- % inhibition Apol 90' (DRC-1; 90'; concentration 40): 92.3698%
- % inhibition Apol 90' (DRC-1; 90'; concentration 80): 99.716%
- % inhibition apPOL 180' (DRC-1; 180'; concentration 2.5): 5.356%
- % inhibition apPOL 180' (DRC-1; 180'; concentration 5): 9.027%
- % inhibition apPOL 180' (DRC-1; 180'; concentration 10): 27.7566%
- % inhibition apPOL 180' (DRC-1; 180'; concentration 20): 64.7558%
- % inhibition apPOL 180' (DRC-1; 180'; concentration 40): 88.0246%
- % inhibition apPOL 180' (DRC-1; 180'; concentration 80): 99.8487%
- % inhibition Apo pol 5' [1]: 39%
- % inhibition Apo pol 5' [2]: 75%
- % inhibition Apol 40' (DRC-2, 40', concentration 5 (unit not given)): 15%
- % inhibition Apol 40' (DRC-2, 40', concentration 20 (unit not given)): 81%
- % inhibition Apol 40' [3]: 86%
- % inhibition ApPOL 90' [4]: 39%
- % inhibition ApPOL 90' (DRC-2, 90', concentration 20 (unit not given)): 81%
- % inhibition apPOL 180' [5]: 75%
- % inhibition apPOL 180' (DRC-2, 180', concentration 80 (unit not given)): 86%
- % inhibition Apo pol 5' (DRC-2; 5'; concentration 2.5): 2.61%
- % inhibition Apo pol 5' (DRC-2; 5'; concentration 5): 15%
- % inhibition Apo pol 5' (DRC-2; 5'; concentration 5 (unit not given)): 15%
- % inhibition Apo pol 5' (DRC-2; 5'; concentration 10): 39%
- % inhibition Apo pol 5' (DRC-2; 5'; concentration 20): 73%
- % inhibition Apo pol 5' (DRC-2; 5'; concentration 40): 75%
- % inhibition Apo pol 5' (DRC-2; 5'; concentration 80): 62%
- % inhibition Apol 40' (DRC-2; 40'; concentration 2.5): 1.87%
- % inhibition Apol 40' (DRC-2; 40'; concentration 5): 15%
- % inhibition Apol 40' (DRC-2; 40'; concentration 10): 40%
- % inhibition Apol 40' (DRC-2; 40'; concentration 20): 81%
- % inhibition Apol 40' (DRC-2; 40'; concentration 40): 86%
- % inhibition Apol 40' (DRC-2; 40'; concentration 80): 80%
- % inhibition ApPOL 90' (DRC-2; 90'; concentration 2.5): 2.58%
- % inhibition ApPOL 90' (DRC-2; 90'; concentration 5): 14%
- % inhibition ApPOL 90' (DRC-2; 90'; concentration 10): 39%
- % inhibition ApPOL 90' (DRC-2; 90'; concentration 20): 81%
- % inhibition ApPOL 90' (DRC-2; 90'; concentration 40): 87%
- % inhibition ApPOL 90' (DRC-2; 90'; concentration 80): 83%
- % inhibition apPOL 180' (DRC-2; 180'; concentration 2.5): 3.63%
- % inhibition apPOL 180' (DRC-2; 180'; concentration 5): 5%
- % inhibition apPOL 180' (DRC-2; 180'; concentration 10): 30%
- % inhibition apPOL 180' (DRC-2; 180'; concentration 20): 75%
- % inhibition apPOL 180' (DRC-2; 180'; concentration 40): 85%
- % inhibition apPOL 180' (DRC-2; 180'; concentration 80): 86%
- DNA Pol (primary screen value of the library well; unit not given; 90 min, 10 µM): 49

SMILES: COc1cc(NC(=O)c2ccccc2)c(OC)cc1NC(=O)Cc1cccs1 [KU0032113]
- % inhibition Apo pol 10' (DRC-1; 10'; concentration 2.5): 6.129%
- % inhibition Apo pol 10' (DRC-1; 10'; concentration 5): 17.2801%
- % inhibition Apo pol 10' (DRC-1; 10'; concentration 10): 38.185%
- % inhibition Apo pol 10' (DRC-1; 10'; concentration 20): 61.3818%
- % inhibition Apo pol 10' (DRC-1; 10'; concentration 40): 79.6269%
- % inhibition Apo pol 10' (DRC-1; 10'; concentration 80): 80.874%
- % inhibition Apol 90' (DRC-1; 90'; concentration 2.5): 2.9%
- % inhibition Apol 90' (DRC-1; 90'; concentration 5): 9.442%
- % inhibition Apol 90' (DRC-1; 90'; concentration 10): 29.583%
- % inhibition Apol 90' (DRC-1; 90'; concentration 20): 53.4832%
- % inhibition Apol 90' (DRC-1; 90'; concentration 40): 79.1036%
- % inhibition Apol 90' (DRC-1; 90'; concentration 80): 83.2869%
- % inhibition apPOL 180' (DRC-1; 180'; concentration 2.5): 0.5437%
- % inhibition apPOL 180' (DRC-1; 180'; concentration 5): 4.503%
- % inhibition apPOL 180' (DRC-1; 180'; concentration 10): 19.4766%
- % inhibition apPOL 180' (DRC-1; 180'; concentration 20): 39.9313%
- % inhibition apPOL 180' (DRC-1; 180'; concentration 40): 73.4883%
- % inhibition apPOL 180' (DRC-1; 180'; concentration 80): 81.431%
- % inhibition Apo pol 5' (DRC-2, 5', concentration 2.5 (unit not given)): 25%
- % inhibition Apo pol 5' [1]: 38%
- % inhibition Apo pol 5' (DRC-2, 5', concentration 20 (unit not given)): 38%
- % inhibition Apo pol 5' [2]: 34%
- % inhibition Apol 40' (DRC-2, 40', concentration 2.5 (unit not given)): 34%
- % inhibition Apol 40' (DRC-2, 40', concentration 10 (unit not given)): 54%
- % inhibition Apol 40' [3]: 61%
- % inhibition ApPOL 90' (DRC-2, 90', concentration 5 (unit not given)): 25%
- % inhibition ApPOL 90' [4]: 54%
- % inhibition apPOL 180' [5]: 61%
- % inhibition Apo pol 5' (DRC-2; 5'; concentration 2.5): 25%
- % inhibition Apo pol 5' (DRC-2; 5'; concentration 5): 21%
- % inhibition Apo pol 5' (DRC-2; 5'; concentration 10): 38%
- % inhibition Apo pol 5' (DRC-2; 5'; concentration 20): 38%
- % inhibition Apo pol 5' (DRC-2; 5'; concentration 40): 34%
- % inhibition Apo pol 5' (DRC-2; 5'; concentration 80): -20%
- % inhibition Apol 40' (DRC-2; 40'; concentration 2.5): 34%
- % inhibition Apol 40' (DRC-2; 40'; concentration 5): 28%
- % inhibition Apol 40' (DRC-2; 40'; concentration 10): 54%
- % inhibition Apol 40' (DRC-2; 40'; concentration 20): 62%
- % inhibition Apol 40' (DRC-2; 40'; concentration 40): 61%
- % inhibition Apol 40' (DRC-2; 40'; concentration 80): 35%
- % inhibition ApPOL 90' (DRC-2; 90'; concentration 2.5): 31%
- % inhibition ApPOL 90' (DRC-2; 90'; concentration 5): 25%
- % inhibition ApPOL 90' (DRC-2; 90'; concentration 10): 54%
- % inhibition ApPOL 90' (DRC-2; 90'; concentration 20): 64%
- % inhibition ApPOL 90' (DRC-2; 90'; concentration 40): 66%
- % inhibition ApPOL 90' (DRC-2; 90'; concentration 80): 47%
- % inhibition apPOL 180' (DRC-2; 180'; concentration 2.5): 22%
- % inhibition apPOL 180' (DRC-2; 180'; concentration 5): 13%
- % inhibition apPOL 180' (DRC-2; 180'; concentration 10): 44%
- % inhibition apPOL 180' (DRC-2; 180'; concentration 20): 61%
- % inhibition apPOL 180' (DRC-2; 180'; concentration 40): 67%
- % inhibition apPOL 180' (DRC-2; 180'; concentration 80): 59%
- DNA Pol (primary screen value of the 186 hits; unit not given): 42
- DNA Pol (primary screen value, head "DNA Pol", unit not given): 42
